Experimental data from patent publication US6653305B2, “Bicyclic heterocycles, pharmaceutical compositions containing them, their use, and processes for preparing them” (Boehringer Ingelheim Pharma KG, priority 2000, dated 2003).

System: not given
Assay: not given
Settings: not given

First: CN(CC=CC(=O)Nc1cc2c(Nc3ccc(F)c(Cl)c3)ncnc2cc1OCC1CC1)CC1OCCO1 [1(2), 4-[(3-chloro-4-fluorophenyl)amino]-6-[(4-{N-[(1,3-dioxolan-2-yl)methyl]-N-methylamino}-1-oxo-2-buten-1-yl)amino]-7-cyclopropylmethoxyquinazoline]
Second: C[C@H]1C(=O)OCCN1CC=CC(=O)Nc1cc2c(Nc3ccc(F)c(Cl)c3)ncnc2cc1OCC1CC1 [Example 2(2), 4-[(3-chloro-4-fluorophenyl)amino]-6-{[4-((S)-3-methyl-2-oxomorpholin-4-yl)-1-oxo-2-buten-1-yl]amino}-7-cyclopropylmethoxyquinazoline]
The melting point of the first is lower: 121 °C for the first, 182 °C for the second.

Compared with C[C@@H]1CN(CC=CC(=O)Nc2cc3c(Nc4ccc(F)c(Cl)c4)ncnc3cc2O[C@@H]2CCOC2)CC(=O)O1 [Example 2(7), 4-[(3-chloro-4-fluorophenyl)amino]-6-{[4-((R)-6-methyl-2-oxomorpholin-4-yl)-1-oxo-2-buten-1-yl]amino}-7-[(R)-(tetrahydrofuran-3-yl)oxy]quinazoline], C[C@@H]1CN(CC=CC(=O)Nc2cc3c(Nc4ccc(F)c(Cl)c4)ncnc3cc2OCC2CCOCC2)CC(=O)O1 [Example 2(19), 4-[(3-chloro-4-fluorophenyl)amino]-6-{[4-((R)-6-methyl-2-oxomorpholin-4-yl)-1-oxo-2-buten-1-yl]amino}-7-[(tetrahydropyran-4-yl)methoxy]quinazoline] is lower in melting point: 230 °C for the first, 196 °C for the second.

C[C@H]1CN(CC=CC(=O)Nc2cc3c(Nc4ccc(F)c(Cl)c4)ncnc3cc2OCC2CCOCC2)CC(=O)O1 [Example 2(21), 4-[(3-chloro-4-fluorophenyl)amino]-6-{[4-((S)-6-methyl-2-oxomorpholin-4-yl)-1-oxo-2-buten-1-yl]amino}-7-[(tetrahydropyran-4-yl)methoxy]quinazoline] gave a melting point of 196 to 199 °C.

Biological target: T1, human EGF-R (Homo sapiens, UniProt P00533)
T1 construct: expressed in transfected cells; host or cells: F/L-HERc cells (murine IL-3-dependent FDC-P1 line transduced with LXSN retroviral vector carrying human EGF-R cDNA; packaging line GP+E86)
Assay: Inhibition of EGF-dependent proliferation of F/L-HERc cells (Cell Titer 96 assay)
Assay type: cell-based
Settings: F/L-HERc cells (murine IL-3-dependent line expressing human EGF-R), stimulated with EGF 20 ng/ml, 48 hours at 37° C.
Text: A cell line of murine origin dependent on interleukin-3-(IL-3) which was genetically modified to express functional human EGF-R was used here. The proliferation of these cells known as F/L-HERc can therefore be stimulated either by murine IL-3 or by EGF (cf. T. von Rüden et al. in EMBO J. 7, 2749-2756 (1988) and J. H. Pierce et al. in Science 239, 628-631 (1988)).
The starting material used for the F/L-HERc cells was the cell line FDC-P1, the production of which has been described by T. M. Dexter et al. in J. Exp. Med. 152, 1036-1047 (1980). Alternatively, however, other growth-factor-dependent cells may also be used (cf., for example, J. H. Pierce et al. in Science 239, 628-631 (1988), H. Shibuya et al. in Cell 70, 57-67 (1992) and W. S. Alexander et al. in EMBO J. 10, 3683-3691 (1991)). For expressing the human EGF-R cDNA (cf. A. Ullrich et al. in Nature 309, 418-425 (1984)) recombinant retroviruses were used as described by T. von Rüden et al., EMBO J. 7, 2749-2756 (1988), except that the retroviral vector LXSN (cf. A. D. Miller et al. in BioTechniques 7, 980-990 (1989)) was used for the expression of the EGF-R cDNA and the line GP+E86 (cf. D. Markowitz et al. in J. Virol. 62, 1120-1124 (1988)) was used as the packaging cell.
The test was performed as follows:
F/L-HERc cells were cultivated in RPMI/1640 medium (Bio Whittaker), supplemented with 10% fetal calf serum (FCS, Boehringer Mannheim), 2 mM glutamine (Bio Whittaker), standard antibiotics and 20 ng/ml of human EGF (Promega), at 37° C. and 5% CO2. In order to investigate the inhibitory activity of the compounds according to the invention, 1.5×10^4 cells per well were cultivated in triplicate in 96-well dishes in the above medium (200 μl), the cell proliferation being stimulated with either EGF (20 ng/ml) or murine IL-3. […]
In order to determine the inhibitory activity of the compounds according to the invention the relative cell number was measured in O.D. units using the Cell Titer 96™ Aqueous Non-Radioactive Cell Proliferation Assay (Promega). […]

T1 sequence (P00533 25-1210): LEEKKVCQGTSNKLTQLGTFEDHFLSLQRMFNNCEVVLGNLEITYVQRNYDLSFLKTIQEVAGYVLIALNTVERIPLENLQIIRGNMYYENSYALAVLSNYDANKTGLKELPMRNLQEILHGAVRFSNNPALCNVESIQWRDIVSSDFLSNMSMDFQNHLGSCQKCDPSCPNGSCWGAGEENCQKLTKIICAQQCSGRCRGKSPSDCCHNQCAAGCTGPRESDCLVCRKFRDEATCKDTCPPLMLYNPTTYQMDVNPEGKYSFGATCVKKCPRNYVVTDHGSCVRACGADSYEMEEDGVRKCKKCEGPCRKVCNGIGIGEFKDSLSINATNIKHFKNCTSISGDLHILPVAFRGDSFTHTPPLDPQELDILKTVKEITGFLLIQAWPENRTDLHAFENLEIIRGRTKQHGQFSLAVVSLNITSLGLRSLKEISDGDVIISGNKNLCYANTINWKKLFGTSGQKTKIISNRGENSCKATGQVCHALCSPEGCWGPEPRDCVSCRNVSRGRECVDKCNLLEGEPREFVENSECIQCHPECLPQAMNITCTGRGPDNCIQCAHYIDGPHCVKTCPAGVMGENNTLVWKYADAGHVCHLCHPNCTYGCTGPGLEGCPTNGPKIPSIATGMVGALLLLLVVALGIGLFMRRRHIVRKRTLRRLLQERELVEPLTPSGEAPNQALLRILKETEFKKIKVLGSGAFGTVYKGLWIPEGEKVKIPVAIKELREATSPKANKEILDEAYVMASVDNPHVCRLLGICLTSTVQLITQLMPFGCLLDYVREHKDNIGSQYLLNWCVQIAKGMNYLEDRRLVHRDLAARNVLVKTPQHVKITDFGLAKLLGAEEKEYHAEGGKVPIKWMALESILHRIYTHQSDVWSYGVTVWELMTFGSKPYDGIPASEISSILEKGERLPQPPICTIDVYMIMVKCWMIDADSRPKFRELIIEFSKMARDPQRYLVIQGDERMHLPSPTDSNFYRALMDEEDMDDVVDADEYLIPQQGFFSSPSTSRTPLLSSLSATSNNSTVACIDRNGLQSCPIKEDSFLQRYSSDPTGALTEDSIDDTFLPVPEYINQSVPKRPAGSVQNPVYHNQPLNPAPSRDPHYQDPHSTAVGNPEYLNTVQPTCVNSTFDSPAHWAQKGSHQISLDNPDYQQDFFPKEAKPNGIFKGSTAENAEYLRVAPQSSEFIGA

Compared with CN(CC=CC(=O)Nc1cc2c(Nc3ccc(F)c(Cl)c3)ncnc2cc1OCC1CC1)CC1OCCO1 [1(2), 4-[(3-chloro-4-fluorophenyl)amino]-6-[(4-{N-[(1,3-dioxolan-2-yl)methyl]-N-methylamino}-1-oxo-2-buten-1-yl)amino]-7-cyclopropylmethoxyquinazoline], C[C@@H]1CN(CC=CC(=O)Nc2cc3c(Nc4ccc(F)c(Cl)c4)ncnc3cc2OCC2CC2)CC(=O)O1 [2(1), 4-[(3-chloro-4-fluorophenyl)amino]-6-{[4-((R)-6-methyl-2-oxomorpholin-4-yl)-1-oxo-2-buten-1-yl]amino}-7-cyclopropylmethoxyquinazoline] is 450-fold higher in IC50: 0.02 nM for the first, 9 nM for the second.

C[C@H]1CN(CC=CC(=O)Nc2cc3c(Nc4ccc(F)c(Cl)c4)ncnc3cc2OCC2CC2)CC(=O)O1 [Example 2, 4-[(3-chloro-4-fluorophenyl)amino]-6-{[4-((S)-6-methyl-2-oxomorpholin-4-yl)-1-oxo-2-buten-1-yl]amino}-7-cyclopropylmethoxyguinazoline] showed an IC50 of 15 nM.
